According to US9018248B2, “Fatty acid derivatives of catechins and methods of their use” (Genesis Group Inc., priority 2010, dated 2015):

Assay: Reducing power (Fe3+-Fe2+ transformation)
Conditions: test compounds 1 mM in 95% ethanol, ascorbic acid equivalents
Experimental: An ORAC (Oxygen Radical Absorbance Capacity) assay was carried out using a Fluostar Optima plate reader (BMG Labtech, Durham, N.C.) equipped with an incubator and two injector pumps. A modified method for lipophilic antioxidants was followed, in which randomly methylated cyclodextrin (RMCD) was used as water solubility enhancer, as described by Huang et al, J. Agric. Food Chem., 2002, 50, 1815-1821. Trolox standards (6.25-50 μM) and samples (0.25 μM) were dissolved in acetone/water (1:1, v/v) containing 7% RMCD. Fluorescein and […] [2,2′-azobis(2-aminopropane)dihydrochloride] were used as the probe and radical generator, respectively. […] Fluorescence was measured at an excitation wavelength of 485 nm and emission of 520 nm. […] (3b) Reducing Power The reducing power of EGCG and its derivatives (compounds 1a-1c) was determined according to Oyaizu (1986). […] The content was mixed well and the absorbance was recorded at 700 nm. Higher absorbance of the reaction mixture indicates greater reducing power. […] (3c) Metal Chelation The metal chelation capacity was measured following a procedure by Decker E. A. et al., J. Agric. […] The absorbance was measured afterwards at 562 nm. A blank without ferrozine was run for each compound, since the antioxidant-Fe^2+ complex gives a colour that might interfere with the absorbance reading. […] The spectrum was recorded after 1 min. […]

For `O=C(O[C@@H]1Cc2c(O)cc(O)cc2O[C@@H]1c1cc(O)c(O)c(O)c1)c1cc(O)c(O)c(O)c1` [EGCG, Epigallocatechin gallate, reference compound], which “Reducing power relative to ascorbic acid” value is on record?
Its value is “highest reducing power”.
